Measurements taken from US20150038435A1, “N-TERMINALLY MODIFIED OLIGOPEPTIDES AND USES THEREOF” (Novo Nordisk A/S, priority 2012, published 2015).
Values joined by “and” are separate entries in the source; they are usually repeats but may differ in a detail not shown here. Equal values may be shown once. Non-standard residues stand in square brackets, D forms with d. Residues, ends and D or L forms follow the SMILES beside them. *: point of attachment. Lauroyl = CCCCCCCCCCCC(=O)*

Key:
GI juice = test: Inhibition of GI juice degradation of insulin analogue and GLP-1 analogue; format: biochemical; settings: compound 1 mM, rat GI juice
Method: 96 well plates were coated by incubating with 0.4% Bovine serum albumin (BSA) solution for minimum of 60 min. […] 1% TFA), 30 μl of a substrate (100 μM insulin analogue or GLP-1 analogue in buffer) and 30 μl of N-terminally acylated peptide or oligopeptide of the invention (10 mM) were added. The plates were pre-incubated (before adding GI juice) for 60 min at 37° C. After addition of 30 μl of GI juice (10-times diluted in buffer), the plates were incubated for 60 min/37° C. on shaker. […] 1% TFA and spun down in plates (4500 rpm for 10 min). Samples were diluted 5 times with the buffer prior to LC-MS analysis. Standard samples (0.1, 0.5, 1.0, 5.0, 10.0 μM) were prepared and treated as the samples. Standard curve was analysed both at the beginning and the end of the sequence. Two replicates of each tested conditions were included. Ion suppression was assessed by analyzing a standard at 1 μM and at 10 μM with 1 mM inhibitor present. Intact insulin or GLP-1 analoues were determined at each sample. The results were plotted against the incubation time. […] The half-lives were expressed relative to the half-live of the insulin or GLP-1 analogue without inhibitor present by dividing the half-lives obtained in the presence of inhibitor with those obtained in the absence of inhibitors. GI juice was prepared from male Sprague Dawley rats (200-250 g) by excising approximately 20 cm piece of mid jejunum and rinsing the inside with 2.5 ml 0.9% sodium chloride solution. The sodium chloride solution was collected in a centrifuge tube, pooled from all rats (20) and centrifuged at 4500 rpm./10 min/4° C. The supernatant was aliquoted in tubes and stored at −80° C.
A14E, B25H, B29K(N(eps)Octadecanedioyl-γGlu-OEG-OEG), desB30 human insulin and N-epsilon26-[2-(2-{2-[2-(2-{2-[(S)-4-Carboxy-4-(17-carboxyheptadecanoylamino)-butyrylamino]ethoxy}ethoxy)acetylamino]ethoxy}ethoxy)acetyl][Aib8,Arg34]GLP-1-(7-37) were used as standards in this assay.
For experiments repeated more than two times, standard deviation is given

[1] = Rat PK following intraintestinal injection; format: in vivo; settings: of insulin, 60 nmol/kg intraintestinal, Composition 3: 3% compound, propylene glycol, diglycerol caprylate, Tween 20
Method: Anaesthetized rats were dosed intraintestinally (into jejunum) with reference compounds and N-terminally acylated peptide or oligopeptides of the invention. Plasma concentrations of the employed compounds as well as changes in blood glucose were measured at specified intervals for 4 hours or more post-dosing. Pharmacokinetic parameters were subsequently calculated using WinNonLin Professional (Pharsight Inc., Mountain View, Calif., USA).
The compositions for the intraintestinal injection model were prepared for example according to the following composition (in weight %):
The anesthetized rat was placed on a homeothermic blanket stabilized at 37° C. A 20 cm polyethylene catheter mounted a 1-ml syringe was filled with insulin composition or vehicle. A 4-5 cm midline incision was made in the abdominal wall. […]
Blood samples for the determination of whole blood glucose concentrations were collected in heparinised 10 μl capillary tubes by puncture of the capillary vessels in the tail tip. Blood glucose concentrations were measured after dilution in 500 μl analysis buffer by the glucose oxidase method using a Biosen autoanalyzer (EKF Diagnostic Gmbh, Germany). […]
Samples were collected for determination of the plasma insulin concentration. […] Plasma concentrations of the insulin analogues were measured in a immunoassay. […]

Chymotrypsin = test: Inhibition of enzymatic degradation of a chromogenic substrate (Example 202); format: biochemical; settings: substrate N-succinyl-Ala-Ala-Pro-Phe-p-Nitroanilide
Excerpt: The use of chromogenic substrates to monitor activity of proteolytic enzymes is known in the field (for example DelMar, E. G., et al., Anal. Biochem., 99, 316-320, (1979)). For example, N-succinyl-Ala-Ala-Pro-Phe-p-Nitroanilide is commonly used substrate for measuring chymotrypsin activity. Enzymatic cleavage of 4-nitroanilide substrates yields 4-nitroaniline (yellow color under alkaline conditions).
An assay following the increase in absorbance at 395 nm as a function of time was established in 96 well format using Varioskan Flash Multimode Meter (Thermo Scientific). Each well contained 70 μl of Dulbecco's phosphate buffer saline (Invitrogen catalogue #14190-094), 10 μl of N-succinyl-Ala-Ala-Pro-Phe-p-Nitroanilide (Sigma cat# S 7388) in DMSO (different concentrations were used in order to obtain the inhibition constant), 10 μl of N-terminally acylated peptide or oligopeptide of the invention in varying concentration and 10 μl of a stock solution of an enzyme (chymotrypsin, trypsin, elastase, etc.). The incubations were performed at 37° C. Absorbance at 395 nm was measured immediately after addition of the enzyme to the 96 well plate and also every minute for the next 80 minutes. The concentration of the enzyme was optimized to allow determination of slopes for the time course of initial absorbance increase with and without added inhibitors. The slopes were determined by linear regression of the linear part of the fluorescence trace (for example, the first 10 min of the reaction). Each assay was performed in duplicate and average of the two traces was included in the calculations. The relative effect of N-terminally acylated peptide or oligopeptides of the invention on enzymatic degradation of N-succinyl-Ala-Ala-Pro-Phe-p-Nitroanilide was obtained by comparison of the slopes achieved by the same concentration of the N-terminally acylated peptide or oligopeptides. […] This was done by plotting the slopes achieved with different concentrations of the N-terminally acylated peptide or oligopeptides of the invention as a function of their concentrations and fitting the experimental results using, for example, sigmoidal logistic regression (2 parameters, Sigma Plot v 11). Inhibition constants for the interaction between the N-terminally acylated peptide or oligopeptides of the invention and proteolytic enzymes were also obtained by performing the assay described above with varying concentrations of the inhibitor and substrate and analyzing the results, for example, by double reciprocal transformation as known to the person skilled in the art and described for example in Hubalek, F. et al., J. Med. Chem. 47, 1760-1766 (2004).

Bioavailability [1]	Ki (Chymotrypsin; chymotrypsin)	kind of enzyme inhibition (Chymotrypsin; chymotrypsin)	Ki (Chymotrypsin)	Structure (SMILES)	Half Life fold increase (over solution w/o N-terminally acylated (oligo)peptide) (GI juice)	Half Life of insulin analogue (GI juice; 37° C.)
4.5 ± 2.7%				CCCCCCCCCCCC(=O)N[C@H](C)C(=O)N[C@H](C)C(=O)N1CCC[C@@H]1C(=O)N[C@H](Cc1ccccc1)C(=O)O [Example 1, N-dodecanoyl-DAla-DAla-DPro-DPhe-OH] (Lauroyl-[dA][dA][dP][dF]-OH)	5.0	13.0 min
	~130 µM and ~150 µM	competitive inhibition	130 µM	CCCCCCCCCCCC(=O)N[C@@H](C)C(=O)N[C@@H](C)C(=O)N1CCC[C@H]1C(=O)N[C@@H](Cc1ccccc1)C(=O)O [Example 34, N-dodecanoyl-Ala-Ala-Pro-Phe-OH] (Lauroyl-AAPF-OH)		
